In patent publication US20090118194A1, “Measurement of melanocortin peptides and uses thereof” (Auckland UniServices Limited, priority 2002, published 2009):
“Also recorded” adds a separate entry of the source.

How the values were obtained:
[1] = test system: hypothalamic proteins; assay: Hypothalamic proteome analysis after i.c.v. injection; type: in vivo, rat
Method: Alpha-MSH and desacetyl-α-MSH both couple melanocortin receptors to either adenylyl cyclase or calcium-signalling pathways in vitro. To characterise the signal transduction pathways engaged by α-MSH and desacetyl-α-MSH in vivo, rats received an intracerebroventricular (i.c.v.) injection of either phosphate buffered saline (PBS), α-MSH or desacetyl-α-MSH. Three hours later, food intake was measured and hypothalamic tissues were collected for 2D gel electrophoresis-based proteome analysis.
(§1) Adult male Wistar rats (50-60 days old, 230-260 g at the beginning of the experiment) were maintained in individual cages under controlled temperature (23° C.) and reverse lighting (1000-2200 lights off). Standard laboratory chow (NZ Stockfeed Ltd) and tap water were available ad libitum during the adaptation phase. During this time animals were handled daily to minimize the effects of stress on food intake during experiments. Body weight was measured daily before, and one week after cannulation. Any animal showing signs of illness, such as weight loss, poor grooming, or decreased activity, was removed from the study. All animal procedures undertaken were approved by the Animal Ethics Committee of the University of Auckland.
(§2) After 7 days of adaptation, animals were subject to cannula placement surgery under 3% halothane/O2 anaesthesia. A permanent lateral ventricle infusion cannula (6-mm 21 gauge) was placed on top of the dura at 7.5 mm anterior from stereotaxic zero, 1.5 mm to the right of the mid-sagittal line, and secured to the skull with dental cement. Animals were allowed at least 7 days to recover from surgery before injections.
(§3) Rats were fasted overnight before the day of experiment.
(§4) Under 3% halothane/O2 anaethesia rats were infused icv through a 12-mm 27-gauge needle, connected to 20-cm length tubing attached to a syringe. Infusions were performed in the early dark phase between 1000 and 1130 hr using motor driven infusion pumps at a rate of 1.0 μl/min over 10 min. Movement of a 0.2 ml air-space introduced between the 0.9% saline solution filling the PE10 tubing-syringe system and the test solution served as an indicator of a successful infusion. At the end of each experiment animals were euthanised by pentobarbital overdose, and cannula placement was confirmed by visual inspection of the cannula tip location within the brain ventricular system.
Only one of these proteins was common to α-MSH and desacetyl-α-MSH. A combination of Reverse-phase HPLC followed by Edman protein sequencing, and peptide mass fingerprinting technique using MALDI-TOF mass spectrometry were used to identify the proteins of interest. The proteomic data provide a snap-shot of the protein expression patterns in the hypothalamus 3 hours post i.c.v. administration of the melanocortin peptides.

[2] = test system: food deprived Wistar rats; assay: Food intake after i.c.v. injection of melanocortin peptides; type: in vivo, rat
Method: as §1, §2, §3
as §4, with “At the end of each experiment animals were euthanised by pentobarbital overdose, and cannula placement was confirmed by visual inspection of the cannula tip location within the brain ventricular system.” left out
Following infusion, the cannula was left in place for 1 min, removed, and the animal returned to its cage with fresh pre-weighed food and water. At 3 h post-injection, the pellets and collected food spillage in the cage, were weighed and this weight was subtracted from the initial weight to quantify the amount of food eaten over 3 h.
The significance of treatment effects was evaluated using one-way ANOVA (Systat10 package)

[3] = test system: primary rat osteoblasts; assay: Primary rat osteoblast proliferation assay ([3H]thymidine incorporation, cell number); type: cell-based
From the text: Primary rat osteoblasts were isolated from 20 day fetal rat calvariae. (The use of animals for these studies was approved by the Auckland Animal Ethics Committee.) Calvariae were excised and the frontal and parietal bones, free of suture and periosteal tissue, were collected and sequentially digested using collagenase as previously described (Cornish J, Callon K E, Lin C Q X, Xiao C L, Mulvey T B, Cooper G J S, Reid I R Trifluoroacetate, a contaminant in puritied proteins, inhibits proliferation of osteoblasts and chondrocytes. Amer J Physiol Endocrinol Metab 277: E779-E783, 1999). Primary rat osteoblasts were grown in DMEM supplemented with 10% FCS, 50 U/ml penicillin and 50 μg/ml streptomycin. After 48 hour, the medium was changed to MEM. Confluence was reached within 5-6 days, at which time the cells were subcultured into 10 cm culture plates for RNA preparation or 24 well plates for proliferation assays.
Primary rat osteoblasts were subcultured into 24 well plates at a density of 5×10^4 cells/ml/well in MEM, 5% FCS for 24 hours. Cells were growth arrested in MEM, 0.1% bovine serum albumin (BSA) for 24 hour and then fresh media and experimental compounds were added for a further 24 hours. Cells were pulsed with [^3H]thymidine (0.5 μCi/well) 2 hours before the end of the experimental incubation. The experiment was terminated and both cell numbers and thymidine incorporation were assessed. Cell numbers were analysed by detaching cells from the wells by exposure to trypsin/EDTA (0.05%/0.53 mM) for approximately 5 minutes at 37° C. Counting was performed in a hemocytometer chamber. Results are expressed per well. [^3H]Thymidine incorporation was analysed by washing the cells in MEM followed by the addition of 10% trichloroacetic acid. The precipitate was washed twice with ethnol:ether (3:1) and the wells desiccated at room temperature. The residue was dissolved in 2M KOH at 55° C. for 30 minutes, neutralized with 1M HCl, and an aliquot counted for radioactivity. Results are expressed as dpm per well. Each experiment was performed at least three times using experimental groups consisting of at least six wells.
Data are presented as mean±SEM. The significance of differences between groups was determined using Student's t tests for unpaired data and a 5% significance level. The comparisons to be made in each experiment were specified a priori, so no adjustment for multiple comparisons was necessary. Where several experiments have been shown in one figure, the data are expressed as the ratio of results in treatment groups to those in the control group and the ‘P’ values shown were calculated using the data from the individual experiments, before the data were pooled.

[4] = hypothalamus, 3 h after i.c.v. injection, rats

Cu/Zn superoxide dismutase (p1347), effect compared to control [1, 4]: 1.4 fold decrease
Protein disulfide isomerase (p261), effect compared to control [1, 4]: 1.4 fold decrease
gamma-enolase (p1438), effect compared to control [1, 4]: 1.7 fold decrease
glyceraldehyde-3-phosphate-dehydrogenase (p1210), effect compared to control [1, 4]: 1.4 fold decrease
phosphatidylethanolamine binding protein (p1267), effect compared to control [1, 4]: 2.5 fold decrease
triosephosphate isomerase (p1521), effect compared to control [1, 4]: 1.4 fold decrease
Sequence: SYSMEHFRWGKPV [desacetyl-α-MSH, non-acetylated form of α-MSH, obtained from Bachem]
number of hypothalamic proteins with expression significantly different from PBS ([1]; 3 hours post i.c.v., p<0.05): 20
effect on food intake over 3 h vs PBS ([2]; 10 μg i.c.v., first study): not significantly different from the PBS treated control group
effect on food intake over 3 h vs PBS ([2]; 10 μg i.c.v., first study, listed as Desacetyl-α-MSH): no significant effect on feeding
effect on food intake over 3 h vs PBS ([2]; 50 μg i.c.v., second study): significantly reduce food intake; also recorded: significantly decreased food intake
antagonism of α-MSH stimulated [3H] thymidine uptake ([3]; 10^−7 M against α-MSH 10^−8 M and 10^−7 M, growth arrested primary rat osteoblasts): inhibited two doses of α-MSH (10^−8 M and 10^−7 M) from stimulating [^3H] thymidine uptake; also recorded: antagonise α-MSH stimulated stimulation of thymidine incorporation
osteoblast proliferation ([3]; 10^−7 M and 10^−8 M, alone): no significant effect on osteoblast proliferation in two out of three experiments
thymidine incorporation or cell numbers (proliferation) ([3]; growth arrested primary rat osteoblasts, 10^−7 M, alone): did not stimulate thymidine incorporation or cells numbers
